Results: patent US5994334A, “Androgen synthesis inhibitors” (priority 1997, dated 1999)

Tests used:
BPH patients = details: cited from earlier work; for serum testosterone levels (in words): human, in vivo
dogs = details: vs finasteride; cited from earlier work
C17,20-lyase = details: [3H]-progesterone substrate; read-out: IC50 C17,20-lyase (Potter et al.); cited from earlier work
5α-reductase = details: cited from earlier work
17α-hydroxylase = details: [3H]-progesterone substrate; read-out: IC50 17α-hydroxylase (Potter et al.); cited from earlier work
[1] = molecular target: T1, Human Prostatic 5α-Reductase (Homo sapiens, UniProt P31213); assay: Inhibition of human prostatic 5α-reductase (prostatic microsomes, [3H]testosterone); details: for IC50: IC50 5α-reductase; for inhibition at 0.01 µM: read-out: % Inhibition of 5α-reductase, [I] 10 nM; for inhibition at 0.1 µM: read-out: % Inhibition of 5α-reductase, [I] 100 nM
T1 sequence (P31213 1-254): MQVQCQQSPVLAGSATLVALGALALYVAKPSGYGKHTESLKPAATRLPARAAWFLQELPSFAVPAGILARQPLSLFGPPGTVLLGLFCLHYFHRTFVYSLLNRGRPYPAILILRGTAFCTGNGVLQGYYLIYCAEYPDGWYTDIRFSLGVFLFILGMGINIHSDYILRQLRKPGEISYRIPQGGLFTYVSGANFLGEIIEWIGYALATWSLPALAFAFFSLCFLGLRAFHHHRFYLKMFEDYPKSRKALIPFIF

normal male rats = assay: In vivo studies in normal male rats: hormone levels; design: species or system rat
Description: (§1) Studies in normal male rats have been carried out with 4-pregnen-3-one-20β-carboxaldehyde (I-16) (Li et al., 1992) and with its 20-carboxaldoxime (I-23)(Li et al., 1995).

[2] = test system: LNCaP human prostatic cancer cell line; assay: Androgen-dependent growth of LNCaP cells; details: for reversal of DHT-stimulated LNCaP growth (in words): 0.03 nM DHT; for stimulation of LNCaP cell proliferation (in words): hydroxyflutamide 0.3-1 μM
Description: The ability of various inhibitors to reverse the stimulatory effect of testosterone on the growth of the LNCaP human prostatic cancer cell line was tested by comparing cell number in wells treated for 9 days with either drug vehicle only (control), 0.1 nM testosterone only, or 0.1 nM testosterone with inhibitor at 0.3, 1, 2.5, or 5 μM.

[3] = test system: rat 17α-hydroxylase/C17,20-lyase; assay: Inhibition of rat 17α-hydroxylase/C17,20-lyase; assay type: biochemical
Description: as §1

[4] = test system: mutant AR which is expressed in LNCaP cells; assay: Androgen receptor-mediated gene transcription, mutant AR of LNCaP cells (luciferase, CV1 cells); assay type: cell-based, human
rat 17α-hydroxylase = rat 17α-hydroxylase (Rattus norvegicus, UniProt P11715); assay: Inhibition kinetics of rat 17α-hydroxylase, progesterone substrate; assay type: biochemical
Description: as §1

rat C17,20-lyase = rat C17,20-lyase (Rattus norvegicus, UniProt P11715); assay: Inhibition kinetics of rat C17,20-lyase, 17α-hydroxyprogesterone substrate; assay type: biochemical; details: 17α-hydroxyprogesterone as substrate; vs. Km 76 nM
Description: as §1

[5] = molecular target: human androgen receptor (AR) (Homo sapiens, UniProt P10275); assay: Androgen receptor-mediated gene transcription, wild-type AR (luciferase, CV1 cells); assay type: cell-based; details: against DHT stimulation
[6] = molecular target: T1, Human Prostatic 5α-Reductase; assay: biochemical
[7] = test system: patients with prostatic cancer; details: combined with GnRH or orchidectomy vs GnRH agonist or orchidectomy alone; cited from earlier work
[8] = test system: human prostatic tissue (BPH or prostate cancer); assay: Prostate tissue in histoculture, DNA synthesis ([3H]-thymidine uptake); details: inhibitor 1 μM; testosterone 1 μM; FIG. 1
Description: We recently developed a histoculture method to evaluate the growth inhibiting properties of the compounds on human prostatic tissue. […] The tissue samples were then incubated for 3 days in fresh medium/treatment containing 2 μCi/ml [^3 H]-thymidine. Tissue was then digested and DNA extracted. For each sample, [^3 H]-thymidine uptake was normalized to DNA content. […] This finding is consistent with the compound acting as an antiandrogen. None of the compounds produced an independent effect on DNA synthesis in the absence of added androgens.

[9] = test system: breast cancers in postmenopausal patients; details: human, in vivo; cited from earlier work
mutant androgen receptor = details: cited from earlier work
TRPM-2 gene = details: vs castration; cited from earlier work
[10] = test system: 5α-reductase Type I and Type II isoforms; details: cited from earlier work
[11] = in vivo; cited from earlier work
[12] = 50 mg/kg/day sc, 21 days, vs control
[13] = 50 mg/kg/day sc, 21 days, vs vehicle

Sequence of human androgen receptor (AR) (P10275 whole entry): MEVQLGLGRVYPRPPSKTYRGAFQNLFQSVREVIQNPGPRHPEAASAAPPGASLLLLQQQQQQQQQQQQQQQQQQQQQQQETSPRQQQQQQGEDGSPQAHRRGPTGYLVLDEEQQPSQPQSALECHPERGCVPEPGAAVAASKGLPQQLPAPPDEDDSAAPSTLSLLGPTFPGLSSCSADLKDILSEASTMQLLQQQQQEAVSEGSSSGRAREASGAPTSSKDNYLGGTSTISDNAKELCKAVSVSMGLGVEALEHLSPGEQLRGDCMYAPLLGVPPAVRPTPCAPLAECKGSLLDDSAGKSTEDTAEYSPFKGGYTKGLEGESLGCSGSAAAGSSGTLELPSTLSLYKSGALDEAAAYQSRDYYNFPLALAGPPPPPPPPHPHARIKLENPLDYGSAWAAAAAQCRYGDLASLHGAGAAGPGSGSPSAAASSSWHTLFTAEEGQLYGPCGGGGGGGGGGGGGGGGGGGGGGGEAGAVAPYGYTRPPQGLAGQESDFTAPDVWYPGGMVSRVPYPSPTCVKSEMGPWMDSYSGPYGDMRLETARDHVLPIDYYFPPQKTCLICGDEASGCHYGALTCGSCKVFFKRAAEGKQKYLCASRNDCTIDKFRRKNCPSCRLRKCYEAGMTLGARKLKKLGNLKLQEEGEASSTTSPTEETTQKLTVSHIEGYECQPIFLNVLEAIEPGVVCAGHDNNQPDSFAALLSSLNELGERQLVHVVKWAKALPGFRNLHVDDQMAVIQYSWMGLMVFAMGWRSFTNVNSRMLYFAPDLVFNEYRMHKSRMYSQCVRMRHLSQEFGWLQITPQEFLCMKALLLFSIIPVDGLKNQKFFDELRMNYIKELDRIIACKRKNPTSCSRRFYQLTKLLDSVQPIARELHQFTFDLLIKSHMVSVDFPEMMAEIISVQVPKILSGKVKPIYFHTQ
Sequence of rat 17α-hydroxylase (P11715 whole entry): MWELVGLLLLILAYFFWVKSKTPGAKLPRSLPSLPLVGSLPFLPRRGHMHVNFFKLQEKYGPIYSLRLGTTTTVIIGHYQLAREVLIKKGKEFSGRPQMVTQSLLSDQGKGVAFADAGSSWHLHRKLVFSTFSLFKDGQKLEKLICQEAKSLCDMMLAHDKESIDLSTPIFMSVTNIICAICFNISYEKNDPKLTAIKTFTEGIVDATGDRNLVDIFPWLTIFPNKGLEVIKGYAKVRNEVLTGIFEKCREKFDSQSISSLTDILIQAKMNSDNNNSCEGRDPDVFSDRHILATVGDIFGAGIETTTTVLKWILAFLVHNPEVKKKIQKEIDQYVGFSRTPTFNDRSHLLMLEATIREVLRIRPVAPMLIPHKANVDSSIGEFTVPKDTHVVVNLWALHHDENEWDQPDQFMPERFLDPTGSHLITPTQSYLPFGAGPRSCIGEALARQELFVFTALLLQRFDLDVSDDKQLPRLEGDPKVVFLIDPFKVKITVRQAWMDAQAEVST
Sequence of rat C17,20-lyase (P11715 whole entry): as above

## C[C@]12C=CC(=O)N[C@@H]1CC[C@@H]1[C@@H]2CC[C@]2(C)[C@@H](C(=O)c3ccccc3)CC[C@@H]12 [MK-434]
BPH patients
  serum testosterone levels (in words): increase serum testosterone levels
dogs
  reduction of prostatic DHT in dogs (in words): reduces prostatic DHT levels in dogs more effectively than finasteride

## C[C@]12CC[C@H](O)CC1=CC[C@@H]1[C@@H]2CC[C@]2(C)C(c3cccnc3)=CC[C@@H]12 [CB7598, 17-(3'-pyridyl)androsta-5,16-diene-3-ol]
C17,20-lyase
  IC50: 2.9 nM
5α-reductase
  inhibition of 5α-reductase, literature (in words): no activity
17α-hydroxylase
  IC50: 4 nM

## C[C@H](C=NO)[C@H]1CC[C@H]2[C@@H]3CCC4=CC(=O)CC[C@]4(C)[C@H]3CC[C@]12C [Compound I-23, 3-oxo-4-pregnene-20β-carboxaldehyde oxime]
[1]; Table 2
  IC50: 106 nM
[1]; NI = no inhibition
  inhibition of 5α-reductase (in words): potent inhibition of 5α-reductase
[1]
  inhibition at 0.01 µM: 14.7%
  inhibition at 0.1 µM: 85.8%
Normal male rats; [12]
  decrease of prostatic DHT: 44%
  decrease of prostatic testosterone: 60%
  serum LH concentration (in words): unchanged
Normal male rats; [13]
  reduction of serum testosterone: 65%
  reduction of testicular testosterone: 59%
Normal male rats; rat
  reduction of testosterone and DHT levels in serum, testicular and prostatic tissues (in words): significantly reducing testosterone and DHT levels
[2]
  reversal of DHT-stimulated LNCaP growth (in words): stimulation of growth above the level produced by DHT
[2]; 0.1 nM testosterone
  stimulation of LNCaP cell proliferation (in words): stimulated cell proliferation
[3]
  inhibition of rat 17α-hydroxylase/C17,20-lyase (in words): inhibit rat 17α-hydroxylase/C17,20 -lyase
[4]
  agonism/antagonism at mutant AR of LNCaP cells (in words): agonists
Rat 17α-hydroxylase
  Ki: 74 nM
Rat C17,20-lyase
  Ki: 18 nM
[5]
  antagonism of wild-type AR (in words): dose-dependent antagonism
[6]
  Ki: 1.4 nM

## CC(C)C(=O)Nc1ccc([N+](=O)[O-])c(C(F)(F)F)c1 [flutamide, reference compound]
[7]
  progression-free survival (in words): increased progression-free survival time
[8]
  reversal of testosterone-stimulated DNA synthesis (in words), 1 μM: almost complete reversal

## C[C@]12CCC(=O)C(O)=C1CC[C@@H]1[C@@H]2CC[C@]2(C)C(=O)CC[C@@H]12 [Compound 4-OHA, 4-hydroxyandrostene-3,17-dione]
[9]
  side effects (in words): without significant side effects

## CC(C)(O)C(=O)Nc1ccc([N+](=O)[O-])c(C(F)(F)F)c1 [hydroxyflutamide, reference compound]
Mutant androgen receptor
  effect on mutant AR / prostatic cell growth (in words): agonist activity for the mutant androgen receptor of LNCaP cells
[2]; 0.1 nM testosterone
  stimulation of LNCaP cell proliferation (in words): stimulated cell proliferation

## CC(C)(C)NC(=O)[C@H]1CC[C@H]2[C@@H]3CC[C@H]4NC(=O)C=C[C@]4(C)[C@H]3CC[C@]12C [Finasteride, reference compound]
[1]
  IC50: 14 nM
  inhibition at 0.01 µM: 41.2%
  inhibition at 0.1 µM: 88.3%
[1]; Table 2
  IC50: 14 nM
[1]; Table 3, NI = no inhibition
  IC50: 14.4 nM
[1]; read-out: % Inhibition of 5α-reductase, [I] 400 nM
  inhibition at 0.4 µM: 93%
TRPM-2 gene
  TRPM-2 expression (in words): not by finasteride treatment
[2]
  reversal of DHT-stimulated LNCaP growth (in words): dose-dependent reversal
[2]; 0.1 nM testosterone, inhibitor 5 μM
  reversal of testosterone-stimulated LNCaP growth at 5 μM (in words): almost completely reversed
[2]; 0.1 nM testosterone, inhibitor 0.3-5 μM, 9 days
  reversal of testosterone-stimulated LNCaP growth (in words): dose-dependent reversal
[2]; Homo sapiens, LNCaP, 216 h, read-out: concentration reducing the stimulatory effect of testosterone by 50%
  IC50: ≤ 1000 nM
BPH patients
  serum testosterone levels (in words): increase serum testosterone levels
BPH patients; long-term treatment
  gynecomastia in long-term treatment (in words): some patients developed gynecomastia which led to breast cancer in a few cases
BPH patients; patients
  reduction of serum DHT: 65-80%
[10]
  potency at 5α-reductase Type II vs Type I (in words): more potent inhibitor of the Type II than of the Type I isoform

## CC(=O)[C@H]1CC[C@H]2[C@@H]3CCC4=CC(=O)CC[C@]4(C)[C@H]3CC[C@]12C [Progesterone]
[11]
  metabolism and oral activity (in words): rapid metabolism in the body and lack of oral activity
5α-reductase
  inhibition of 5α-reductase, literature (in words): potent 5α-reductase inhibitor
